For one test, the system named is MDA-MB-361.1. Nature of the test: In vitro cell proliferation assay (CellTiter-Glo), MDA-MB-361.1. The test is classed as cell-based. Conditions: Cell line: MDA-MB-361.1; Tissue type: breast; Mutation Status: PI3K; read-out: EC50 (μmole). The protocol: (§1) Efficacy of Formula I compounds was measured by a cell proliferation assay employing the following protocol (Promega Corp. Technical Bulletin TB288; Mendoza et al (2002) Cancer Res. 62:5485-5488):
(§2) 1. An aliquot of 100 μl of cell culture containing about 10^4 cells (PC3, Detroit562, or MDAMB361.1) in medium was deposited in each well of a 384-well, opaque-walled plate.
(§3) 2. Control wells were prepared containing medium and without cells.
(§4) 3. The compound was added to the experimental wells and incubated for 3-5 days.
(§5) 4. The plates were equilibrated to room temperature for approximately 30 minutes.
(§6) 5. A volume of CellTiter-Glo® Reagent equal to the volume of cell culture medium present in each well was added.
(§7) 6. The contents were mixed for 2 minutes on an orbital shaker to induce cell lysis.
(§8) 7. The plate was incubated at room temperature for 10 minutes to stabilize the luminescence signal.
(§9) 8. Luminescence was recorded and reported in graphs as RLU=relative luminescence units.
(§10) Alternatively, cells were seeded at optimal density in a 96 well plate and incubated for 4 days in the presence of test compound. Alamar Blue™ was subsequently added to the assay medium, and cells were incubated for 6 hr before reading at 544 nm excitation, 590 nm emission. EC50 values were calculated using a sigmoidal dose response curve fit. The term EC50 refers to the half maximal effective concentration and is the concentration at which a drug induces a response halfway between the baseline and maximum after some specified exposure time. It is commonly used as a measure of drug potency.
(§11) The anti-proliferative effects of Formula I exemplary compounds were measured by the CellTiter-Glo® Assay against various tumor cell lines, including the following: […]
In general terms: Cellular ATP, detected with luciferase, serves as a proxy for viable cell number.
T1 sequence (P42336 whole entry): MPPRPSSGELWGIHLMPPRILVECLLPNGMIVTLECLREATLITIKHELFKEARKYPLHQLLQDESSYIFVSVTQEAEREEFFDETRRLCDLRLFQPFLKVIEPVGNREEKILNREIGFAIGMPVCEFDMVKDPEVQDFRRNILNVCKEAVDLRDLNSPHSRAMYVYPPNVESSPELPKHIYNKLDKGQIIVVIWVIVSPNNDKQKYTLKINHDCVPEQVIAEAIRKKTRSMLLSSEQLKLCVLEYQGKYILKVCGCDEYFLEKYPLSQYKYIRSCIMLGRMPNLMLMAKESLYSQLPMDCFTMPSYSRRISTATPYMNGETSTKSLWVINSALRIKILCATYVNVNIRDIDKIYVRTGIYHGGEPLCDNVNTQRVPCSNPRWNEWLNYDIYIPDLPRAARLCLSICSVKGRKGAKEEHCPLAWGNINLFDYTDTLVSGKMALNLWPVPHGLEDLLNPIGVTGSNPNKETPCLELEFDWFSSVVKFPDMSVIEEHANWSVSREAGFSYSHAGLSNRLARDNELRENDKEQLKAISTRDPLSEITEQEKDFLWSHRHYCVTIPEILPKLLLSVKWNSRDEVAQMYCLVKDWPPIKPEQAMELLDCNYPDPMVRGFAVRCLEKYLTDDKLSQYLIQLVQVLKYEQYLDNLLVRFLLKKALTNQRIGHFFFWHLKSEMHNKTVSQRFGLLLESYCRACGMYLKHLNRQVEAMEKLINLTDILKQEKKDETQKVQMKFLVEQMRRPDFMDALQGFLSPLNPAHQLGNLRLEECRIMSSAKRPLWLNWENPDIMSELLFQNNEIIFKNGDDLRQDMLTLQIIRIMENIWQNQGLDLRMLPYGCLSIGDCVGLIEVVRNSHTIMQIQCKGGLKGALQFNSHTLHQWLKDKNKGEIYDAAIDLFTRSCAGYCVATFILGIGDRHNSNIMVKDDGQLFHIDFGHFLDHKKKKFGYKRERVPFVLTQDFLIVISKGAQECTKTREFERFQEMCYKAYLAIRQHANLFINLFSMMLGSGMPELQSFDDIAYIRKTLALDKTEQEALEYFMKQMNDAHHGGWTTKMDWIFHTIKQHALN
T1 sequence (P27986 whole entry partner): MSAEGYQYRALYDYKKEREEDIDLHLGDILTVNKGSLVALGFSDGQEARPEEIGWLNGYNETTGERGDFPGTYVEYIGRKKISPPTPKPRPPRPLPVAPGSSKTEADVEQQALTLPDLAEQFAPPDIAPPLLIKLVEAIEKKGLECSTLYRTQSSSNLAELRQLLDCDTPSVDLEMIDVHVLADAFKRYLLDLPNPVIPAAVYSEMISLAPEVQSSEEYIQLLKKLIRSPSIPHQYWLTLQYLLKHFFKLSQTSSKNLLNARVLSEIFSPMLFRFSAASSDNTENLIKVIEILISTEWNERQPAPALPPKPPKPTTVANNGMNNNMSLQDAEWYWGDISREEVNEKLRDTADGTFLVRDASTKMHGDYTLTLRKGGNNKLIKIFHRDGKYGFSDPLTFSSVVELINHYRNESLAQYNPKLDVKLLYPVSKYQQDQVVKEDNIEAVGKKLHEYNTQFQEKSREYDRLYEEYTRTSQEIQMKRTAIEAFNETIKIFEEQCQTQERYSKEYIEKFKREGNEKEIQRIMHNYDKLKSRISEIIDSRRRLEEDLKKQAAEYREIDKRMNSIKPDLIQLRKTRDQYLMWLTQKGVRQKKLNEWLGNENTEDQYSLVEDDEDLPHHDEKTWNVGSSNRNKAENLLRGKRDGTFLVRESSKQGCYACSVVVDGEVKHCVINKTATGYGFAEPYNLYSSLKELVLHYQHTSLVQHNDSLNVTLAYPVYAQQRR
Broadly, the EC50 is the midpoint of the concentration-response curve. For the compound `CC1c2nc3c(N4CCOCC4)nc(-c4cnc(N)nc4)nc3n2CCN1C` (stereo not drawn) [Compound 176, 5-(6,7-dimethyl-4-morpholino-6,7,8,9-tetrahydropyrazino[2,1-e]purin-2-yl)pyrimidin-2-amine], the EC50 amounted to 889 nM.

The next test concerns the target T1, p110 alpha PI3K (Homo sapiens, UniProt P42336).
T1 construct: purchased Upstate Cell Signaling Solutions, Charlottesville, Va
Nature of the test: p110α (alpha) PI3K binding assay (fluorescence polarization; alternatively radiometric). Conditions: read-out: IC50, Ki (μmole) PI3K, p110 alpha binding assay. The protocol: Binding Assays: Initial polarization experiments were performed on an Analyst HT® 96-384 (Molecular Devices Corp, Sunnyvale, Calif.). […] After an incubation time of 30 minutes at room temperature, the reactions were stopped by the addition of GRP-1 and PIP3-TAMRA probe (Echelon-Inc., Salt Lake City, Utah) 100 nM and 5 nM final concentrations respectively. Read with standard cut-off filters for the rhodamine fluorophore (λex=530 nm; λem=590 nm) in 384-well black low volume Proxiplates® (PerkinElmer, Wellesley, Mass.) Fluorescence polarization values were plotted as a function of the protein concentration, and the EC50 values were obtained by fitting the data to a 4-parameter equation using KaleidaGraph® software (Synergy software, Reading, Pa.). This experiment also establishes the appropriate protein concentration to use in subsequent competition experiments with inhibitors.
After an incubation time of 30 minutes at room temperature, the reactions were stopped by the addition of GRP-1 and PIP3-TAMRA probe (Echelon-Inc., Salt Lake City, Utah) 100 nM and 5 nM final concentrations respectively. Read with standard cut-off filters for the rhodamine fluorophore (λex=530 nm; λem=590 nm) in 384-well black low volume PROXIPLATES® (PerkinElmer, Wellesley, Mass.) Fluorescence polarization values were plotted as a function of the antagonist concentration, and the IC50 values were obtained by fitting the data to a 4-parameter equation in Assay Explorer® software (MDL, San Ramon, Calif.).
The Formula I compound was serially diluted in 100% DMSO. The kinase reaction was incubated for 1 hr at room temperature, and the reaction was terminated by the addition of PBS. IC50 values were subsequently determined using sigmoidal dose-response curve fit (variable slope).
For orientation: In fluorescence polarisation assays a small probe gives low polarisation when free and higher when bound to something large.
As a reminder, the IC50 is the concentration needed to halve the response being measured. For the compound `CC1(C)OCCn2c1nc1c(N3CCOCC3)nc(-c3ccc(N4CCOCC4)nc3)nc12` [Compound 132, 6,6-dimethyl-4-morpholino-2-(6-morpholinopyridin-3-yl)-8,9-dihydro-6H-[1,4]oxazino[3,4-e]purine], the IC50 was greater than 695 nM.
On the same count and under the same terms, as for `CC1(C)OCCn2c1nc1c(N3CCOCC3)nc(-c3cccc(CC#N)c3)nc12` [Compound 144, 2-(3-(6,6-dimethyl-4-morpholino-8,9-dihydro-6H-[1,4]oxazino[3,4-e]purin-2-yl)phenyl)acetonitrile], the figure is greater than 695 nM; as for `CN1CCN(c2ccc(-c3nc(N4CCOCC4)c4nc5n(c4n3)CCOC5(C)C)cn2)CC1` [Compound 149, 6,6-dimethyl-2-(6-(4-methylpiperazin-1-yl)yridine-3-yl)-4-morpholino-8,9-dihydro-6H-[1,4]oxazino[3,4-e]purine], greater than 695 nM; as for `CC1(C)OCCn2c1nc1c(N3CCOCC3)nc(-c3cccc(CN4CCOCC4)c3)nc12` [Compound 146, 6,6-dimethyl-4-morpholino-2-(3-(morpholinomethyl)phenyl)-8,9-dihydro-6H-[1,4]oxazino[3,4-e]purine], greater than 695 nM.
Same read-out and setting: under `CC1(C)OCCn2c1nc1c(N3CCOCC3)nc(-c3ccc(N4CCCCC4)cc3)nc12` [Compound 157, 6,6-dimethyl-4-morpholino-2-(4-(piperidin-1-yl)phenyl)-8,9-dihydro-6H-[1,4]oxazino[3,4-e]purine] stands greater than 695 nM; under `CN(C(=O)OC(C)(C)C)c1ccc(-c2nc(N3CCOCC3)c3nc4n(c3n2)CCOC4(C)C)cc1` [Compound 143, tert-butyl 4-(6,6-dimethyl-4-morpholino-8,9-dihydro-6H-[1,4]oxazino[3,4-e]purin-2-yl)phenyl(methyl)carbamate], greater than 695 nM; under `CNC(=O)c1ccc(-c2nc(N3CCOCC3)c3nc4n(c3n2)CCOC4(C)C)cn1` [Compound 153, 5-(6,6-dimethyl-4-morpholino-8,9-dihydro-6H-[1,4]oxazino[3,4-e]purin-2-yl)-N-methylpicolinamide], greater than 695 nM.
The same measure, in the same setting: under `CC(=O)Nc1ccccc1-c1nc(N2CCOCC2)c2nc3n(c2n1)CCOC3(C)C` [Compound 135, N-(2-(6,6-dimethyl-4-morpholino-8,9-dihydro-6H-[1,4]oxazino[3,4-e]purin-2-yl)phenyl)acetamide] stands greater than 695 nM.
`CC1(C)OCCn2c1nc1c(N3CCOCC3)nc(-c3cccc(N4CCOCC4)c3)nc12` [Compound 145, 6,6-dimethyl-4-morpholino-2-(3-morpholinophenyl)-8,9-dihydro-6H-[1,4]oxazino[3,4-e]purine]: the IC50 is greater than 695 nM.
Same read-out and setting: as for `Cc1n[nH]c(C)c1-c1nc(N2CCOCC2)c2nc3n(c2n1)CCOC3(C)C` [Compound 136, 2-(3,5-dimethyl-1H-pyrazol-4-yl)-6,6-dimethyl-4-morpholino-8,9-dihydro-6H-[1,4]oxazino[3,4-e]purine], the figure is greater than 695 nM; as for `CC1(C)OCCn2c1nc1c(N3CCOCC3)nc(-c3cccc(C(=O)NC4CC4)c3)nc12` [Compound 162, N-cyclopropyl-3-(6,6-dimethyl-4-morpholino-8,9-dihydro-6H-[1,4]oxazino[3,4-e]purin-2-yl)benzamide], greater than 695 nM; as for `CC1(C)OCCn2c1nc1c(N3CCOCC3)nc(-c3ccc(OCc4ccccc4)cc3)nc12` [Compound 154, 2-(4-(benzyloxy)phenyl)-6,6-dimethyl-4-morpholino-8,9-dihydro-6H-[1,4]oxazino[3,4-e]purine], greater than 695 nM.
The same measure, in the same setting: under `CN1CCN(c2cc(-c3nc(N4CCOCC4)c4nc5n(c4n3)CCOC5(C)C)ccn2)CC1` [Compound 130, 6,6-dimethyl-2-(2-(4-methylpiperazin-1-yl)yridine-4-yl)-4-morpholino-8,9-dihydro-6H-[1,4]oxazino[3,4-e]purine] stands greater than 695 nM; under `CC1(C)OCCn2c1nc1c(N3CCOCC3)nc(-c3ccc(O)nc3)nc12` [Compound 137, 5-(6,6-dimethyl-4-morpholino-8,9-dihydro-6H-[1,4]oxazino[3,4-e]purin-2-yl)pyridine-2-ol], greater than 695 nM.
For `CN(C)C(=O)c1ccc(-c2nc(N3CCOCC3)c3nc4n(c3n2)CCOC4(C)C)cc1` [Compound 142, 4-(6,6-dimethyl-4-morpholino-8,9-dihydro-6H-[1,4]oxazino[3,4-e]purin-2-yl)-N,N-dimethylbenzamide], the IC50 was greater than 695 nM.
In the case of `CCn1cc(-c2nc(N3CCOCC3)c3nc4n(c3n2)CCOC4(C)C)cn1` [Compound 141, 2-(1-ethyl-1H-pyrazol-4-yl)-6,6-dimethyl-4-morpholino-8,9-dihydro-6H-[1,4]oxazino[3,4-e]purine], the IC50 was greater than 695 nM.
Still for that read-out and setting: as for `CC1(C)OCCn2c1nc1c(N3CCOCC3)nc(-c3ccc(C#N)cc3)nc12` [Compound 151, 4-(6,6-dimethyl-4-morpholino-8,9-dihydro-6H-[1,4]oxazino[3,4-e]purin-2-yl)benzonitrile], the figure is greater than 695 nM; as for `Cn1cc(-c2nc(N3CCOCC3)c3nc4n(c3n2)CCOC4(C)C)cn1` [Compound 127, 6,6-dimethyl-2-(1-methyl-1H-pyrazol-4-yl)-4-morpholino-8,9-dihydro-6H-[1,4]oxazino[3,4-e]purine], greater than 695 nM; as for `CC1(C)OCCn2c1nc1c(N3CCOCC3)nc(-c3cccc(OCc4ccccc4)c3)nc12` [Compound 147, 2-(3-(benzyloxy)phenyl)-6,6-dimethyl-4-morpholino-8,9-dihydro-6H-[1,4]oxazino[3,4-e]purine], greater than 695 nM.
Still for that read-out and setting: under `CC1(C)OCCn2c1nc1c(N3CCOCC3)nc(-c3cnn(Cc4ccccc4)c3)nc12` [Compound 133, 2-(1-benzyl-1H-pyrazol-4-yl)-6,6-dimethyl-4-morpholino-8,9-dihydro-6H-[1,4]oxazino[3,4-e]purine] stands greater than 695 nM; under `CN1CCN(c2ccc(-c3nc(N4CCOCC4)c4nc5n(c4n3)CCOC5(C)C)cc2)CC1` [Compound 156, 6,6-dimethyl-2-(4-(4-methylpiperazin-1-yl)phenyl)-4-morpholino-8,9-dihydro-6H-[1,4]oxazino[3,4-e]purine], greater than 695 nM.
On the same count and under the same terms, under `CC1(C)OCCn2c1nc1c(N3CCOCC3)nc(-c3ccc4[nH]ncc4c3)nc12` [Compound 129, 2-(1H-indazol-5-yl)-6,6-dimethyl-4-morpholino-8,9-dihydro-6H-[1,4]oxazino[3,4-e]purine] stands greater than 695 nM; under `CC(C)Oc1ncccc1-c1nc(N2CCOCC2)c2nc3n(c2n1)CCOC3(C)C` [Compound 134, 2-(2-isopropoxypyridin-3-yl)-6,6-dimethyl-4-morpholino-8,9-dihydro-6H-[1,4]oxazino[3,4-e]purine], greater than 695 nM.
With `CN1CCN(C(=O)c2ccc(-c3nc(N4CCOCC4)c4nc5n(c4n3)CCOC5(C)C)cc2)CC1` [Compound 161, (4-(6,6-dimethyl-4-morpholino-8,9-dihydro-6H-[1,4]oxazino[3,4-e]purin-2-yl)phenyl)(4-methylpiperazin-1-yl)methanone], the IC50 is greater than 695 nM.
The same measure, in the same setting: as for `CN(C)c1cccc(-c2nc(N3CCOCC3)c3nc4n(c3n2)CCOC4(C)C)c1` [Compound 155, 3-(6,6-dimethyl-4-morpholino-8,9-dihydro-6H-[1,4]oxazino[3,4-e]purin-2-yl)-N,N-dimethylaniline], the figure is greater than 695 nM.

Another test deals with PC3. Kind of test: In vitro cell proliferation assay (CellTiter-Glo), PC3. The test is classed as cell-based. Conditions: Homo sapiens, PC-3; Cell line: PC3; Tissue type: prostate; Mutation Status: PTEN; read-out: EC50 (μmole). On the procedure: as §1, §2, §3, §4, §5, §6, §7, §8, §9, §10, §11
As for `CC1c2nc3c(N4CCOCC4)nc(-c4cnc(N)nc4)nc3n2CCN1C` (stereo not drawn) [Compound 176, 5-(6,7-dimethyl-4-morpholino-6,7,8,9-tetrahydropyrazino[2,1-e]purin-2-yl)pyrimidin-2-amine], the EC50 is 1900 nM.

(Values after patent US8883799B2, “Tricyclic PI3K inhibitor compounds and methods of use” (Genentech, Inc., priority 2010, dated 2014).)
